The test system of one data set is IFNAR1 mRNA. Kind of data set: mRNA synthesis of interferon receptor subunit IFNAR1, Real Time PCR in A-549 cells. As to conditions: 100 ng/mL, 16 hours after the treatment (FIG. 1). The format is cell-based. The protocol:
(§1) A continuous cell line A-549 was treated with glutaryl histamine at a concentration of 100 ng/mL. […] The RNAs were isolated by using RNEASY® Kit (Qiagen). The RNA preparation was treated with DNAase (RNase-free DNaseI (Ambion). Reverse transcription was performed by using THERMOSCRIPT™ RT-PCR System (Invitrogen). Quantitative PCR was carried out with the primers: […]

A further data set concerns IFNAR2 mRNA. Kind of data set: mRNA synthesis of interferon receptor subunit IFNAR2, Real Time PCR in A-549 cells. As to conditions: 100 ng/mL, 16 hours after the treatment (FIG. 1). The format is cell-based. The procedure:
as §1
(In qPCR the cycle at which signal appears reflects the starting amount.)

The subject of another data set is IFNAR1. Briefly: Density of interferon receptor subunit IFNAR1 on the surface of primary human macrophages (antibody staining, optical density). The format is cell-based. As to conditions: primary human macrophages, 0.1, 1.0, 10 or 100 ng/mL, 24 hours (FIG. 2). The protocol:
(§2) A 10-day primary culture of human macrophages in 96-well plates was incubated for 24 hours in the presence of glutaryl histamine at concentrations: 0.1, 1.0, 10 or 100 ng/mL or without it. […] The preparation was visualized by staining with horseradish peroxidase-labeled secondary antibodies and adding a substrate. Optical density was measured using an ELISA spectrophotometer.

For the next data set, the system named is IFNAR2. Briefly: Density of interferon receptor subunit IFNAR2 on the surface of primary human macrophages (antibody staining, optical density). The class given is cell-based. As to conditions: primary human macrophages, 0.1, 1.0, 10 or 100 ng/mL, 24 hours (FIG. 2). The procedure: as §2
In another data set the test system is protein MxA. Briefly: Cell sensitivity to interferon: MxA protein immunoblot in A-549 cells. The format is cell-based. As to conditions: for synthesis of MxA protein: glutaryl histamine 100 ng/mL plus 1 IU interferon-alpha. The source says:
Cell lysates were undergone to the procedure of immunoblot analysis (western blotting) by using monoclonal antibodies against to protein MxA (sc-50509, Santa Cruz Biotechnology) to stain membranes by a chemiluminescence method using a substrate (chemiluminescent reagent SUPER SIGNAL® West Femto Chemiluminescent Substrate (Thermo Fisher Scientific)).
For orientation: In western blotting, separated proteins are transferred to a membrane and probed.

Data set [1] relates to herpes simplex virus HSV-1/CL. Briefly: Murine model of herpes meningoencephalitis, HSV-1/CL. The format is in vivo. As to conditions: mice. The protocol: (§3) Mice were intracerebrally infected with herpes simplex virus HSV-1/CL and HSV-2/VN in a dose of 30 μl comprising 10 LD50.
(§4) A therapeutic effect of glutaryl histamine was studied by once-daily oral administration of 200 μl of the drug to the infected mice at a dose of 30 mg/kg 24, 48, 72, 96, and 120 hours after infection with the virus. Mice of the control group were administered placebo under the same conditions ([…] of a physiological solution). The animals were monitored for 14 days after infection, and fatal cases among mice from herpes meningocephalitis were registered in the treated and control groups. Activity of the drug was evaluated by comparing mortality rates of animals treated with glutaryl histamine relative to animals of the control group. A reduction in the mortality rate of the treated animals relative to the control was expressed in percentage.

The subject of data set [2] is herpes simplex virus HSV-2/VN. Kind of data set: Murine model of herpes meningoencephalitis, HSV-2/VN. As to conditions: mice. The class given is in vivo. The protocol:
as §3, §4

Data set [3] is described as follows: Toxic reactions and side effects on administration.

“And” between values parts separate entries of the source, which are not always exact repeats. Identical values can stand only once.

With `O=C(O)CCCC(=O)NCCc1c[nH]cn1` [glutaryl histamine], in the data set with IFNAR1 mRNA, the “increase in the mRNA synthesis of subunit IFNAR1” value is “at least in a two-folded increase”. In the data set on IFNAR2 mRNA, the “increase in the amount of the mRNA of subunit IFNAR2” value was “three-fold increase”. The “density of IFNAR1 on the cell surface (signal in antibody staining)” value with IFNAR1 is listed as “noticeably increased level of the signal”. For the same compound, the “density of IFNAR2 on the cell surface (signal in antibody staining)” value with IFNAR2 is “noticeably increased level of the signal”. Also, the “synthesis of MxA protein” value with protein MxA (8 hours (line 5, FIG. 3)) is reported as “increased synthesis”; in the data set on protein MxA (24 hours (line 6, FIG. 3)), “increased synthesis”. Besides, the “accumulation of MxA protein” value in the data set on protein MxA (glutaryl histamine 100 ng/mL, not treated with interferon (lines 1, 2, 3, FIG. 3)) was “did not cause the accumulation”. In addition, the “Mortality rate, %” value in data set [1] (HSV-1 strain CL intracerebral 10 LD50, oral once daily 24-120 h after infection, 14 days monitoring, control 95.0) stood at 65%; in data set [2] (HSV-2 intracerebral 10 LD50, oral once daily 24-120 h after infection, 14 days monitoring, control 85.0), 45%. For the same compound, the “Life expectancy, days M ± σ” value is 8.1 days and 8.1 ± 4.9 days in data set [1] (HSV-1 strain CL, 14 days monitoring, control 4.8 ± 3.1); 10.2 days and 10.2 ± 4.8 days in data set [2] (HSV-2, 14 days monitoring, control 6.1 ± 4.3). The “Protection index, %” value in data set [1] (HSV-1 strain CL, reduction in mortality relative to control) worked out at 31.6%; in data set [2] (HSV-2, reduction in mortality relative to control), 47.1%. In data set [3] (accompanying the therapeutic effect), the “toxic reactions and other side effects” value is “not accompanied by toxic reactions and other side effects”. Moreover, the adverse side effects entry in data set [3] (long-term administration in therapeutic doses or doses greater by an order of magnitude) is recorded as “has not demonstrated adverse side effects”.
